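Dose response: 5 concentrations. Exposure: 48 h. Format: 96-well plates. Endpoint: linear interpolation; highest concentration if not reached. TGI: total growth inhibition.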
Tests used:
Test in all cases: DTP human tumour cell line panel, 48 h
[1] = system: COLO 205 colon
[2] = system: EKVX NSCLC
[3] = system: IGROV1 ovarian
[4] = system: LOX IMVI melanoma
[5] = system: M14 melanoma
[6] = system: MOLT-4 leukemia
[7] = system: NCI-H226 lung
[8] = system: NCI-H23 lung
[9] = system: NCI-H460 lung
[10] = system: OVCAR-3 ovarian
[11] = system: OVCAR-4 ovarian
[12] = system: RPMI-8226 leukemia
[13] = system: RXF 393 renal
[14] = system: SK-MEL-28 melanoma
[15] = system: T-47D breast
[16] = system: UACC-257 melanoma
[17] = system: UACC-62 melanoma
[18] = system: SK-MEL-5 melanoma
[19] = system: SR leukemia

Structure (SMILES)	TGI [1] [µM]	TGI [2] [µM]	TGI [3] [µM]	TGI [4] [µM]	TGI [5] [µM]	TGI [6] [µM]	TGI [7] [µM]	TGI [8] [µM]	TGI [9] [µM]	TGI [10] [µM]	TGI [11] [µM]	TGI [12] [µM]	TGI [13] [µM]	TGI [14] [µM]	TGI [15] [µM]	TGI [16] [µM]	TGI [17] [µM]	TGI [18] [µM]	TGI [19] [µM]
CCOC(=O)c1c(N2CCOCC2)ncn(-c2cccc(Cl)c2)c1=O	> 100	> 100	> 100	> 100	> 100	> 100	> 100	> 100	> 100	> 100	> 100	> 100	> 100	> 100	> 100	> 100	> 100		
CN(C(=S)Cc1ccc(Cl)c(Cl)c1)C1CCCC[C@@H]1N1CCCC1 (stereo partly specified)		> 100			37.2	> 100	> 100	> 100		> 100	> 100	> 100		31.6	> 100		34.1	33	
COc1ccc(/C=C2\CCC(C)c3c2nc(N)c(C#N)c3-c2ccc(OC)c(OC)c2)cc1OC (stereo unspecified)	73.1	8.53	> 100	> 100	> 100	> 100	> 100	> 100		> 100		> 100	> 100	> 100	6.38	75.5	> 100	> 100	
COc1ccc(-c2c(-c3ccccc3)c(C)nc3[nH]c(=S)[nH]c(=S)c23)cc1OC	72.1	> 100	> 100	> 100	> 100	63.6	> 100	> 100	98.3	40.2	> 100	> 100	> 100	52.8	> 100	> 100	40.2	> 100	
Nc1nc(Cl)c(N)c(NCC2(CO)CCC(CCc3ccccc3)C2)n1 (stereo unspecified)	25.1	> 69.9	> 62.4	25.9	27.4	28	42.5	28.6	32.2	50.3	77.5	47.7	37.2	31.1	> 59	18.8	26	15.1	
COC1(OC)N=C(N)C2(C#N)C(C)=C3NCN(C)N=C3C12C#N (stereo unspecified)	> 100	> 100	> 100	> 100	> 100		> 100	> 100		> 100		> 100	> 100	> 100	> 100	> 100	> 100	> 100	
COc1cc2c(c(OC)c1OC)C(=O)[C@@H](O)[C@H]2NC(N)=O	> 100	> 100	> 100	> 100	> 100	> 100	> 100	> 100	> 100	> 100		> 100	> 100	> 100	> 100	> 100	> 100	> 100	
CC(=Nc1cccc(Cl)c1)c1ccncc1	> 100	> 100	> 100	> 100	> 100	> 100	> 100	> 100	> 100	> 100	> 100	> 100	> 100	> 100	> 100		> 100	> 100	
CCCCCCCCCCCCCCCCCCOCC(C[N+]1(C)CCC(O)CC1)OCC (stereo unspecified)	14.2	46.3	21		23.4	10.6	21.4	16		15.4	18	11.5		33.5		28	19.7		3.73
CCCCCCCCCC(=O)NC(CCC(=O)N(CCNC(=O)c1nc(-c2ccccc2)oc1-c1ccccc1)Cc1ccccc1)C(=O)O (stereo unspecified)	36.8	35.1	39.8	35.9	28.3	> 100	55.5	33.9	> 100	30.1	75.2	79	36.8	37.9	47.7	54.7		29.7	
O=C(/C=C/c1ccccc1)c1cc(C(=O)/C=C/c2ccccc2)c(O)cc1O	> 100	> 100	> 100	> 100	> 100	> 100		> 100	> 100			> 100		> 100		> 100	> 100	> 100	
C=CCc1oc(C)nc1CCCC	> 100	> 100	> 100	> 100	> 100	> 100	> 100	> 100	> 100	> 100	> 100		> 100	> 100	> 100	> 100	> 100	> 100	
c1ccc(C2=NN=C3C(c4ccccc4)=Nc4ccccc4N3C2)cc1	52.8	> 68.6	> 100	> 100	50.4	> 52.3	> 70.2	> 100	23.5	> 24.5	42	40.8	> 100	> 100	> 100	32.4	> 100	40.7	
CC(C)(C)n1c(=O)n(-c2ccccc2)n(C(C)(C)C)c1=O	> 100	> 100	> 100	> 100	> 100	> 100	> 100	> 100	> 100	> 100	> 100		> 100	> 100		> 100	> 100	> 100	> 100
O=C(OCc1ccccc1)c1ccc(NCc2cc(O)ccc2O)cc1	2.88	3.48	2.49	3.14	4.02		7.69	3.73	18.7	2.38	2.99	> 100	2.4	3		3.4	3.15	2.87	
COc1ccc(CCc2ccc3c(c2)OCO3)cc1	> 100	> 100	> 100	> 100	> 100	> 100	> 100	> 100	> 100	> 100	> 100	> 100	86	> 100		> 100	> 100	> 100	45.4
CC1=NN(C(=O)CC(=O)NC(=O)/C=C\c2ccccc2)C(=O)C1N=Nc1ccc([N+](=O)[O-])cc1 (stereo unspecified)	> 100	> 100	> 100	> 100	> 100	> 100		> 100	> 100	> 100		> 100	> 100	> 100	> 100		> 100		
CNC(=O)CCCNC(=O)CCCCC(=O)N(C)C	> 100				> 100	> 100		> 100	> 100	> 100	> 100	> 100	> 100	> 100	> 100		> 100	> 100	
C=CC(=O)Nc1ccccc1CC(c1c[nH]c2ccccc12)c1c[nH]c2ccccc12	30.9	51	36.6	36.3	30.3	46.4	40.1	38.2		32.6		50.5		32.1		40.5	31.2	33.4	
Cc1ccc2c(=O)c(-c3nnc(NC4CCCCC4)s3)c[nH]c2n1	> 100	> 100	> 100	> 100	> 100	> 100	> 100	> 100	> 100	> 100	> 100	> 100	> 100	> 100	> 100	> 100	> 100	> 100	
O=C(Cn1c2c(c3ccccc31)CCCC2)N1CCCCC1	> 100	> 100	> 100	> 100	> 100	> 100		> 100	> 100	> 100	> 100	> 100		> 100		> 100	> 100	> 100	> 100
CC(C)(C)[Si](C)(C)OCCc1ccccc1C1CC2(S(=O)(=O)c3ccccc3)ON1CC2S(=O)(=O)c1ccccc1 (stereo unspecified)	> 100	> 100	> 100		> 100	> 100	> 100	> 100	> 100	> 100	> 100		> 100	> 100	> 100	> 100	> 100	> 100	
